In PMC9881673, “Investigating the potential anticancer activities of antibiotics as topoisomerase II inhibitors and DNA intercalators: in vitro, molecular docking, molecular dynamics, and SAR studies” (Journal of Enzyme Inhibition and Medicinal Chemistry, 2023):

What was measured:
[1] = MTT antiproliferative assay, HepG-2; type: cell-based; conditions: human, HepG-2 hepatocellular carcinoma cells, HepG-2, MTT, read-out: IC50 (cytotoxicity)
Method: (§1) DOX was used as standard (920 µM).

[2] = MTT antiproliferative assay, HCT-116; type: cell-based; conditions: human, HCT-116 colorectal carcinoma cells, HCT-116, MTT, read-out: IC50 (cytotoxicity)
Method: as §1

TOP-2 enzyme = biological target: T1, TOP-2 enzyme (Homo sapiens, UniProt P11388); experiment: Topoisomerase II inhibitory assay (TopoGEN plasmid-based kit, DNA decatenation); type: biochemical; conditions: decatenation of DNA by TOP-2; read-out: IC50 (TOP-2 inhibition)
T1 construct: purchased TOPOGEN, CO, USA TG1001
Method: SP, RO, AZ, CL, and ER (as ethyl succinate) were provided from NODQCAR at a purity > 99.87%. Human mammary tumours, hepatocellular carcinoma (HepG2), and colorectal cancer (HCT-116) cell lines were obtained from VACSERA; Egypt. RPMI 1640 doped with 10% FBS was provided from VACSERA; Egypt. The inhibitory potential against TOP-2 was assessed by the Topo GEN assay kit (TOPOGEN, CO, USA).
Results were reported as IC50 and compared to DOX.

in vitro = conditions: human, MCF-7 breast cancer cells

T1 sequence (P11388 whole entry): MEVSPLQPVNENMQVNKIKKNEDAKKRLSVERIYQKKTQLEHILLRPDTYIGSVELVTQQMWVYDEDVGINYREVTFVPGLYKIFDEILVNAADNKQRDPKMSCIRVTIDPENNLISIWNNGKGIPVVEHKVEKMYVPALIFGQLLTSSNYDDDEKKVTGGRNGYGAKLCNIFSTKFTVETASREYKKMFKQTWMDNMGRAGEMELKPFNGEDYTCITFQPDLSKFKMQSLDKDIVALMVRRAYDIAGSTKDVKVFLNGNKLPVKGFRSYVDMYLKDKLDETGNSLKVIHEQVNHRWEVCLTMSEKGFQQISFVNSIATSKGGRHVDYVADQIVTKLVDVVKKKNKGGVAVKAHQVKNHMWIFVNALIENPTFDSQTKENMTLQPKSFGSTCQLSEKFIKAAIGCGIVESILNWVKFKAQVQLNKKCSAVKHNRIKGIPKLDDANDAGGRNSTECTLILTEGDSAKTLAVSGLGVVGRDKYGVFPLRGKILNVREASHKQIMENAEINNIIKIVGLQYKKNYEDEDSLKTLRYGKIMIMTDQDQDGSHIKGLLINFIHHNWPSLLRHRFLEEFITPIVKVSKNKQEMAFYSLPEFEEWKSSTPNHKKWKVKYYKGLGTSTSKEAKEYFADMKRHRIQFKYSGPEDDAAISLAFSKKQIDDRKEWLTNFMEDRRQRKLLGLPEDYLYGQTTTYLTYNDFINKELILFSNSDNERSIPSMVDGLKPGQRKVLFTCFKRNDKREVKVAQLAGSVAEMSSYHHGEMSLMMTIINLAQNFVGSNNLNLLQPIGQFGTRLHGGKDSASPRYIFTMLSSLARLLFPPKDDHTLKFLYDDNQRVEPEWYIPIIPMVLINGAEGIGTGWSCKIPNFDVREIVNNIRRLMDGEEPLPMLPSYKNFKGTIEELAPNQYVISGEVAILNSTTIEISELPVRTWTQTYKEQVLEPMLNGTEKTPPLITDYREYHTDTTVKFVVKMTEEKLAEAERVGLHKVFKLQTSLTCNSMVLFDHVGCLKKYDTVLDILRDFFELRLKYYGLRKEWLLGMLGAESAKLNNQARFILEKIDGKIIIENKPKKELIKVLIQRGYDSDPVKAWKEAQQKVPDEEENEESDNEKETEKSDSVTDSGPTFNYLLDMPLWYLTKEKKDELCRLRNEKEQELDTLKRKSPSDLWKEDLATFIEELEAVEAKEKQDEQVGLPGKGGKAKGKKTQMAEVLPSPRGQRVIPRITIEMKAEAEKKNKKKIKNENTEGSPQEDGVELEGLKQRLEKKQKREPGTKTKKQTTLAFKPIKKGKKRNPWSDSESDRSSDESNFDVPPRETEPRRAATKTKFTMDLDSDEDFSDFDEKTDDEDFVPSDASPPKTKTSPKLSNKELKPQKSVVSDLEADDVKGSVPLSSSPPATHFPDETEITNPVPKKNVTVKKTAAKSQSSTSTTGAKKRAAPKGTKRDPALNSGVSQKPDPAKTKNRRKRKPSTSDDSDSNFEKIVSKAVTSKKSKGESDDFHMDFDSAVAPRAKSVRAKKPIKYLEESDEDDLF

Structure (SMILES) | IC50 (TOP-2 enzyme) [µM] | IC50 at 24 h (in vitro) [µM] | IC50 at 24 h [1] [µM] | IC50 at 24 h [2] [µM]
CC[C@H]1OC(=O)[C@H](C)[C@@H](O[C@H]2C[C@@](C)(OC)[C@@H](O)[C@H](C)O2)[C@H](C)[C@@H](O[C@@H]2O[C@H](C)C[C@H](N(C)C)[C@H]2O)[C@](C)(OC)C[C@@H](C)C(=O)[C@H](C)[C@@H](O)[C@]1(C)O [CL, clarithromycin] | 25.6 ± 1.08 | 1.39 ± 0.15 | 14.8 ± 0.15 | 2.74 ± 0.42
COc1cccc2c1C(=O)c1c(O)c3c(c(O)c1C2=O)C[C@@](O)(C(=O)CO)C[C@@H]3O[C@H]1C[C@H](N)[C@H](O)[C@H](C)O1 [DOX, doxorubicin] | 6.37 ± 0.38 | 0.49 ± 0.1 | 3.6 ± 0.07 | 1.6 ± 0.05
CC[C@H]1OC(=O)[C@H](C)[C@@H](O[C@H]2C[C@@](C)(OC)[C@@H](O)[C@H](C)O2)[C@H](C)[C@@H](O[C@@H]2O[C@H](C)C[C@H](N(C)C)[C@H]2O)[C@](C)(O)C[C@@H](C)/C(=N\OCOCCOC)[C@H](C)[C@@H](O)[C@]1(C)O [RO, roxithromycin] | 13.1 ± 0.77 | 7.9 ± 0.79 | 32 ± 0.18 | 0.097 ± 0.024
COC1C(O)CC(=O)OC(C)CC=CC=CC(OC2CCC(N(C)C)C(C)O2)C(C)CC(CC=O)C1OC1OC(C)C(OC2CC(C)(O)C(O)C(C)O2)C(N(C)C)C1O (centres unmarked) [SP, spiramycin] | 21.2 ± 1.19 | 0.67 ± 0.43 | 20.9 ± 1.33 | 12.2 ± 3.27

Further lines, with some results ahead:

IC50 (TOP-2 enzyme) [µM] | IC50 at 24 h (in vitro) [µM] | Structure (SMILES) | IC50 at 24 h [1] [µM] | IC50 at 24 h [2] [µM]
36.1 ± 2.11 | – | CC[C@H]1OC(=O)[C@H](C)[C@@H](O[C@H]2C[C@@](C)(OC)[C@@H](O)[C@H](C)O2)[C@H](C)[C@@H](O[C@@H]2O[C@H](C)C[C@H](N(C)C)[C@H]2O)[C@](C)(O)C[C@@H](C)CN(C)[C@H](C)[C@@H](O)[C@]1(C)O [AZ, azithromycin] | 32 ± 0.18 | 2.08 ± 0.05
11.6 ± 0.7 | – | CC[C@H]1OC(=O)[C@H](C)[C@@H](O[C@H]2C[C@@](C)(OC)[C@@H](O)[C@H](C)O2)[C@H](C)[C@@H](O[C@@H]2O[C@H](C)C[C@H](N(C)C)[C@H]2O)[C@](C)(O)C[C@@H](C)C(=O)[C@H](C)[C@@H](O)[C@]1(C)O [ER, erythromycin] | – | –
